Four compounds from patent US20250326708A1, “LONG-ACTING SPLEEN-TARGETING CATIONIC LIPID COMPOUND COMPRISING BENZENE RING STRUCTURE, COMPOSITION COMPRISING SAME, AND USE THEREOF” (Beijing Youcarekechuang Pharmaceutical Technology Co., Ltd., priority 2024, published 2025) can be followed below.

Data set [1] in a line: Particle size and polydispersity index (PDI) of lipid nanoparticles, dynamic light scattering. In kind it is physicochemical. The conditions noted are these: LNP preparation with the named cationic lipid; 90° scattering angle, 25° C. An excerpt: (§1) The cationic lipids listed in Table 2 were each mixed with DSPC (AVT (Shanghai) Pharmaceutical Technology Co., Ltd.), cholesterol (AVT (Shanghai) Pharmaceutical Technology Co., Ltd.), and DMG-PEG2000 in a molar ratio of 49:10:39.5:1.5 and dissolved in ethanol to prepare ethanol lipid solutions. Using the ethanol injection method, the ethanol lipid solutions were quickly added to a citrate buffer (pH between 4 and 5), and vortexed for 30 seconds for later use. eGFP-mRNA (purchased from Shanghai BioHub Biotechnology Co., Ltd.), Fluc-mRNA (purchased from Shanghai BioHub Biotechnology Co., Ltd.), or Cy5 fluorescently labeled Leqvio (purchased from Sangon Biotech (Shanghai) Co., Ltd.) was diluted in a citrate buffer (pH between 4 and 5) to obtain an mRNA aqueous solution. A certain volume of the lipid solution and the mRNA aqueous solution were mixed to prepare liposomes at a total lipid-to-mRNA weight ratio of 15:1. The mixtures were sonicated at 25° C. for 15 minutes (ultrasonic frequency: 40 kHz, ultrasonic power: 800 W). The resulting liposomes were diluted 10-fold with PBS, followed by ultrafiltration using a 300 kDa ultrafiltration tube to remove ethanol. After adjusting the volume with PBS, LNP preparations encapsulating eGFP-mRNA or Fluc-mRNA were obtained, using cationic lipids, DSPC, cholesterol, and DMG-PEG2000 at a molar ratio of 49:10:39.5:1.5.
The particle size and polydispersity index (PDI) were measured using dynamic light scattering with a Malvern laser diffraction particle size analyzer.
10 μL of liposome solution was diluted to 1 mL with RNase-free deionized water and added to the sample cell. Each sample was measured three times. The measurement conditions were as follows: 90° scattering angle, 25° C.

Data set [2] concerns female BALB/C mice. Kind of data set: Expression of delivered mRNA in mice in vivo (IVIS in vivo imaging). The conditions noted are these: 10 μg Fluc-mRNA via tail vein. The protocol: LNP preparations containing 10 μg of Fluc-mRNA were injected via the tail vein into female BALB/C mice (4 to 6 weeks old, weighing 17 to 19 g). At specified time points after administration (6 h, 24 h, 48 h, and 7 d), the mice were intraperitoneally injected with fluorescent imaging substrates and allowed to move freely for 5 minutes. The average radiation intensity (corresponding to fluorescence intensity) of proteins expressed by the mRNA delivered by the LNP preparations in the mice in vivo was then detected using the IVIS Spectrum small-animal in vivo imaging system.

The subject of data set [3] is female BALB/C mice. The experiment in a line: Expression of delivered mRNA in different organs of mice (organ imaging). The class given is in vivo. As to conditions: for Average radiation intensity of mouse organs: Heart / Average radiation intensity of mouse organs: Kidney / Average radiation intensity of mouse organs: Liver / Average radiation intensity of mouse organs: Lung / Average radiation intensity of mouse organs: Lymph / Average radiation intensity of mouse organs: Spleen: 6 hours after 5 μg Fluc-mRNA subcutaneously. Here is the method:
LNP preparations containing 5 μg of Fluc-mRNA were subcutaneously injected into female BALB/C mice (4 to 6 weeks old, weighing 17 to 19 g). At specified time points after administration (6 h), the mice were intraperitoneally injected with fluorescent imaging substrates and allowed to move freely for 5 minutes. The average radiation intensity (corresponding to fluorescence intensity) of proteins expressed by the mRNA delivered by the LNP preparations in the mice in vivo was then detected using the IVIS Spectrum small-animal in vivo imaging system. After sampling, the mice were killed by cervical dislocation and dissected, and the internal organs: heart, liver, spleen, lung, kidney, and lymph of mice were accurately isolated. The average radiation intensity (corresponding to fluorescence intensity) of proteins expressed by the mRNA delivered by the LNP preparations in various organs of mice was then detected using the IVIS Spectrum small-animal in vivo imaging system.

Data set [4] concerns 293T cells. The experiment in a line: Cell viability assay (CCK-8) with LNP preparations of Fluc-mRNA. As to conditions: for Cell viability: LNP with 1.5 μg Fluc-mRNA, 24 hours, CCK-8. In kind it is cell-based. The protocol:
(§2) Cell recovery and passage: 293T cells were recovered and cultured in culture dishes. The cells were passaged until the required number of cells was obtained.
(§3) Seeding plates: The cells in culture dishes were digested and counted, then seeded in a 96-well plate at 10,000 cells per well and seeded in a 12-well plate at 150,000 cells per well. The cells were cultured overnight until cell adhesion.
as §1
(§4) Cell recovery and passage: The method was the same as described in Example 3.
(§5) Seeding plates: The method was the same as described in Example 3.
LNP preparations containing 1.5 μg of Fluc-mRNA (with the vector components of the LNP preparations of cationic lipids, DSPC, cholesterol, and DMG-PEG2000 in a molar ratio of 49:10:39.5:1.5, where the cationic lipids are those listed in Table 1) were added to the cell culture medium in a 96-well plate. After 24 hours of continued culture, 10 μL of CCK-8 solution was added to each well, and the culture plate was incubated in an incubator for 1 hour.

Data set [5] concerns 293T cells. The experiment in a line: Fluorescence detection of Fluc-mRNA (transfection efficiency) of LNP preparations. In kind it is cell-based. The conditions noted are these: for Relative light unit (RLU): LNP with 0.3 μg Fluc-mRNA, 96-well plate, 24 hours. The protocol: as §2, §3, §1, §4, §5
LNP preparations containing 0.3 μg of Fluc-mRNA (with the vector components of the LNP preparations of cationic lipids, DSPC, cholesterol, and DMG-PEG2000 in a molar ratio of 49:10:39.5:1.5, where the cationic lipids are those listed in Table 1) were added to the cell culture medium in a 96-well plate. After 24 hours of continued culture, the corresponding reagents were added according to the instructions in the Gaussia Luciferase Assay Kit. Fluorescence intensity in each well was detected using the IVIS fluorescence detection system. The transfection efficiency of LNP preparations prepared with a series of cationic lipid compounds designed in the present disclosure, as well as cationic lipids from the prior art, including SM-102, HHMA, MC3, compound 7, and I-1, is shown in Table 4.

The structures appear in SMILES notation. Where “and” joins values, the source holds several entries; their conditions need not be identical. Equal values may be shown once.

In data set [1], `CCCCCCCCCCCOC(=O)CCCCCN(CCO)CCCCCCCC(=O)OC(CCCCCCCC)CCCCCCCC` [SM-102, reference compound] registered a PDI of 13.5% and a Particle size of 145 nm. For the same compound, the “Average radiation intensity, in vivo imaging” value in data set [2] (6 h) turned out to be 2144435. For the same compound, the “Average radiation intensity, in vivo imaging” value in data set [2] (24 h) stood at 314533. For the same compound, the “Average radiation intensity, in vivo imaging” value in data set [2] (48 h) turned out to be 134554. Also, the “Average radiation intensity, in vivo imaging” value in data set [2] (7 d) was determined as 9243. Further, in data set [3], the “Average radiation intensity of mouse organs: Heart” value (from here on “Average radiation intensity … Heart”) was determined as 0, the “Average radiation intensity of mouse organs: Kidney” value was found to be 0, the “Average radiation intensity of mouse organs: Liver” value (from here on “Average radiation intensity … Liver”) is 24365 and the “Average radiation intensity of mouse organs: Lung” value (from here on “Average radiation intensity … Lung”) is 0. Besides, in data set [3], the “Average radiation intensity of mouse organs: Lymph” value (“Average radiation intensity … Lymph” for short) is on record as 0 and the “Average radiation intensity of mouse organs: Spleen” value is recorded as 25547. For the same compound, the “Expression level in the liver, times that of YK-908” value in data set [3] (liver, 6 h, vs YK-908) is on record as 17.12 times. In addition, in data set [3] (liver, 6 h, vs YK-909), the “Expression level in the liver, times that of YK-909” value turned out to be 2.67 times. For the same compound, in data set [3] (liver, 6 h, vs YK-910), the “Expression level in the liver, times that of YK-910” value stood at 2.13 times. The compound also came in with a Cell viability in data set [4] of 82%. Moreover, in data set [5], the “Relative light unit (RLU)” value is 1428141 RLU.

Turning to `CCCCCCCCCCOC(=O)CCCN1CCN(CCCCCC(=O)OCC(CCCCCCC)CCCCCCCC)CC1` (centres unmarked) [YK-501, reference compound], in data set [1], the PDI amounted to 13.3% and the Particle size came to 144 nm. Besides, the “Average radiation intensity, in vivo imaging” value in data set [2] (6 h) turned out to be 346241. Besides, the “Average radiation intensity, in vivo imaging” value in data set [2] (24 h) was determined as 174776. The “Average radiation intensity, in vivo imaging” value in data set [2] (48 h) came out at 55543. Moreover, the “Average radiation intensity, in vivo imaging” value in data set [2] (7 d) amounted to 5634. For the same compound, in data set [3], the “Average radiation intensity … Heart” value is 0, the “Average radiation intensity of mouse organs: Kidney” value is 0, the “Average radiation intensity … Liver” value was 3334 and the “Average radiation intensity … Lung” value stood at 0. For the same compound, in data set [3], the “Average radiation intensity … Lymph” value is 0 and the “Average radiation intensity of mouse organs: Spleen” value stood at 14224. The same compound gave a Cell viability in data set [4] of 63%. In addition, in data set [5], the “Relative light unit (RLU)” value is 46243 RLU.

`CCCCCCCCCCCCSSCCNC(=O)CCN1CCN(CCCCCC(=O)OCCC(CCCCCC)CCCCCC)CC1` [YK-506, reference compound]: in data set [1], the PDI came to 12.2% and the Particle size stood at 141 nm. The “Average radiation intensity, in vivo imaging” value in data set [2] (6 h) was 1801233. The “Average radiation intensity, in vivo imaging” value in data set [2] (24 h) is recorded as 257765. In addition, the “Average radiation intensity, in vivo imaging” value in data set [2] (48 h) is 82221. The “Average radiation intensity, in vivo imaging” value in data set [2] (7 d) turned out to be 34234. Further, in data set [3], the “Average radiation intensity … Heart” value amounted to 0, the “Average radiation intensity of mouse organs: Kidney” value is 0, the “Average radiation intensity … Liver” value was 18913 and the “Average radiation intensity … Lung” value worked out at 0. For the same compound, in data set [3], the “Average radiation intensity … Lymph” value is listed as 0 and the “Average radiation intensity of mouse organs: Spleen” value is listed as 71213. The compound further registered a Cell viability in data set [4] of 90%. The “Relative light unit (RLU)” value in data set [5] is listed as 654224 RLU.

In data set [1], `CCCCCCCCc1ccc(CCC(CO)(CO)NCCCCCCNC(=O)C(CCCCCC)CCCCCCCC)cc1` (centres unmarked) [YK-908, 2-hexyl-N-(6-((1-hydroxy-2-(hydroxymethyl)-4-(4-octylphenyl)butan-2-yl)amino)hexyl) decanamide] gave a PDI of 12.2% and a Particle size of 121 nm. Further, in data set [2] (6 h), the “Average radiation intensity, in vivo imaging” value worked out at 8918424. For the same compound, the “Average radiation intensity, in vivo imaging” value in data set [2] (24 h) turned out to be 1176543. Besides, the “Average radiation intensity, in vivo imaging” value in data set [2] (48 h) is 344643. The “Average radiation intensity, in vivo imaging” value in data set [2] (7 d) is given as 64325. Moreover, in data set [3], the “Average radiation intensity … Heart” value came to 0, the “Average radiation intensity of mouse organs: Kidney” value was 0, the “Average radiation intensity … Liver” value was 1423 and the “Average radiation intensity … Lung” value came to 0. Besides, in data set [3], the “Average radiation intensity … Lymph” value is 0 and the “Average radiation intensity of mouse organs: Spleen” value stood at 168302. For the same compound, the “Expression level of mRNA in the spleen, times that of SM-102” value in data set [3] (spleen, 6 h, vs SM-102) worked out at 6.59 times. The “Expression level of mRNA in the spleen, times that of YK-501” value in data set [3] (spleen, 6 h, vs YK-501) is 11.83 times. Also, the “Expression level of mRNA in the spleen, times that of YK-506” value in data set [3] (spleen, 6 h, vs YK-506) was found to be 2.36 times. Further, the Cell viability in data set [4] is reported as 89%. In addition, the “Cell viability higher than that of YK-907” value in data set [4] (difference vs YK-907) came to 16%. The “Cellular transfection efficiency, times that of HHMA” value in data set [5] (Fluc-mRNA LNP, vs HHMA) stood at 5.01 times. Also, the “Cellular transfection efficiency, times that of I-1” value in data set [5] (Fluc-mRNA LNP, vs I-1) worked out at 25.01 times. Besides, in data set [5] (Fluc-mRNA LNP, vs Lipofectamine 3000), the “Cellular transfection efficiency, times that of Lipofectamine 3000” value is 6.02 times. The “Cellular transfection efficiency, times that of MC3” value in data set [5] (Fluc-mRNA LNP, vs MC3) was 53.42 times. Besides, the “Cellular transfection efficiency, times that of SM-102” value in data set [5] (Fluc-mRNA LNP, vs SM-102) amounted to 3.55 times. The “Cellular transfection efficiency, times that of YK-501” value in data set [5] (Fluc-mRNA LNP, vs YK-501) was found to be 109.64 times. For the same compound, the “Cellular transfection efficiency, times that of YK-506” value in data set [5] (Fluc-mRNA LNP, vs YK-506) is on record as 7.75 times. The “Cellular transfection efficiency, times that of YK-907” value in data set [5] (Fluc-mRNA LNP, vs YK-907) was 134 times and 134.49 times. Further, the “Cellular transfection efficiency, times that of compound 7” value in data set [5] (Fluc-mRNA LNP, vs compound 7) stood at 19.69 times.
